Converted amounts (≈) assume the structure as drawn. Like-named read-outs stand apart in the source and are kept apart here.
How the values were obtained:
[1] = target: T1, Phosphodiesterase-5 enzyme (PDE 5) (Homo sapiens, UniProt O76074); experiment: Test for phosphodiesterase-5 (PDE 5) activity; format: biochemical; conditions: PDE 5 fraction from human corpus cavernosal tissues
T1 construct: separated by HPLC (Mono Q anion exchange column) with concentration gradient of 0-500 mM NaCl to elute PDE isozymes; from tissue; host or cells: human corpus cavernosal tissue

rats = experiment: Penile erection test using rats; format: in vivo, rat; conditions: oral single dose 10 mg/kg in 0.5% methyl cellulose, observed for 2 hours
[2] = Metabolism in rat liver (9,000xg supernatant fraction with NADPH); format: in vitro ADME; conditions: 10 ug/ml, 37° C., 1 hr, rat liver 9,000xg supernatant with NADPH generating solution
Experimental: In order to evaluate the extent of metabolism of the compounds of formula 1, the metabolism in rat liver was studied as below similar to the reported method (C. L. Litterist, E. G. Mimnaugh, R. I. Reagan and T. G. Gram., Drug. Metabol. Disposit., 1975, 3, 259-265). In short, the disappearance of compounds after incubation in 9, 000×g supernatant fraction of rat liver homogenate in the presence of NADPH (reduced nicotinamide adenine dinucleotide phosphate) was evaluated.
First, Sprague-Dawley rat (Korea Experiment Animals, SPF) liver was isolated after perfusion through portal vein with 0.1 M phosphate buffer of pH 7.0 using tissue homogenizer at 4° C. After centrifugation at 9,000×g for 20 min, the supernatants were collected.
The compound stock solution was spiked (10 ug/ml) into each of the eppendorf tubes containing 1 ml of the mixed solution composing 1 volume of supernatants and 2 volumes of generating solution. The generating solution contains 1 mM NADP, 10 mM glucose-6-phosphate, 50 mM nicotinamide and 5 MM MgCl2 in 0.1 M phosphate buffer of pH 7.0. After vortex-mixing, each test tube was incubated in a water bath kept at 37° C. After 1 hr, was added acetonitrile to the reaction mixture and centrifuged. 100 ul of aliquot of the supernatant was sampled from each test tube for measuring the remnants by high performance liquid chromatography.

[3] = target: T2, Phosphodiesterase-3 enzyme (PDE 3) (Oryctolagus cuniculus, UniProt G1ST54); experiment: Test for phosphodiesterase-3 (PDE 3) activity; format: biochemical; conditions: PDE 3 fraction from platelets of a rabbit
T2 construct: The supernatant was separated by DEAE-cellulose column chromatography (Whatman DE52 bead); from tissue; host or cells: rabbit platelets
T2 sequence (G1ST54 1-1128): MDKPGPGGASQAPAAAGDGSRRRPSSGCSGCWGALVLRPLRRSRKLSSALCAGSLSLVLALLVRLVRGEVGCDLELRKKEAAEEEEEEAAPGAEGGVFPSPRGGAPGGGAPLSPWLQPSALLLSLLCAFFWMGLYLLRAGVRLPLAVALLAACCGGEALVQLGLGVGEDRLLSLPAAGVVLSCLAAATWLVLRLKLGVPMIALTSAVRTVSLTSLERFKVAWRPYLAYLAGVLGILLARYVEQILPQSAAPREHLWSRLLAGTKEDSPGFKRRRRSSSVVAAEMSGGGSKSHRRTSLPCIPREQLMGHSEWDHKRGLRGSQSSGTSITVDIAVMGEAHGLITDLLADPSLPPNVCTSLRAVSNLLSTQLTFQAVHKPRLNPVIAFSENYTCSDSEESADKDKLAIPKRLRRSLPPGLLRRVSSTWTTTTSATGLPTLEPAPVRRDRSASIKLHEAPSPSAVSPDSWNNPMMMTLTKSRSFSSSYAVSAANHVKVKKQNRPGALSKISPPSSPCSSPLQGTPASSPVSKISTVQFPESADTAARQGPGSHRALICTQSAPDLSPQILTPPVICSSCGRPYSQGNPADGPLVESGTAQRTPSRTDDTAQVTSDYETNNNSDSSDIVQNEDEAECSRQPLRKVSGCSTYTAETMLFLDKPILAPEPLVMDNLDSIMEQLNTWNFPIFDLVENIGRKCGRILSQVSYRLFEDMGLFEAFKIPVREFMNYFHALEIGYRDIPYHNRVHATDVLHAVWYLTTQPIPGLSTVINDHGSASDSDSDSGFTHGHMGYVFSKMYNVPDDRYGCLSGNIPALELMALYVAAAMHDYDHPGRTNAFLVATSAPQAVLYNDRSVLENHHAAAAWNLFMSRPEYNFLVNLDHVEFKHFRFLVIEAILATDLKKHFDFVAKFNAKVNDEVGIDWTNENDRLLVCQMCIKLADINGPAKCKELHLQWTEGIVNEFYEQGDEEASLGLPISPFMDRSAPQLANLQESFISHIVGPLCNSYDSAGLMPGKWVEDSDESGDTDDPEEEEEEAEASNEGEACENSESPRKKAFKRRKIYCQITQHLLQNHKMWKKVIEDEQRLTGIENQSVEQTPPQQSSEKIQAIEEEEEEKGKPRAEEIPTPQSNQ
Experimental: Phosphodiesterase-3 enzyme (PDE 3) was separated from platelets of a rabbit. About 60 ml of blood was collected from a puncture of the abdominal artery of a rabbit in heparinized syringes. Platelet-rich plasma was harvested by centrifugation for 5 min at 450×g and further centrifuged for 15 min at 1,200×g to precipitate the platelets. The platelets were resuspended in homogenizing buffer (50 mM Tris-HCl, 1 mM MgCl2, pH 7.4), homogenized at 4° C. and ultrasonicated (30 sec/ml). The homogenized solution was centrifuged (105,000×g) for 1 hr at 4° C. to obtain the supernatant in which PDE was dissolved. The supernatant was separated by DEAE-cellulose column chromatography (Whatman DE52 bead) by using eluent (50 mM Tris-HCl, 3.75mM2-mercaptoethanol, pH 6.0) with concentration gradient of 0-1 M sodium acetate to elute PDE isozymes. The PDE activity was measured on the each column fraction by the following process to separate PDE 3 fraction and the inhibition for PDE 3 of the compounds of formula 1 was measured by using the fraction.
To 1.5 ml tube containing 100 ul of reaction mixture (15 mM Tris-HCl, 5 mM MgCl2, 0.5 mg/ml BSA, pH 7.4) were added appropriate amount of PDE 3 fraction and PDE inhibitor and the solution was mixed well. After [^3H]-cAMP or [^3H]-cGMP (500 nM, 2 uCi/ml) was added, the mixture was reacted in incubator of 30° C. for about 1 hour and the reaction was quenched by putting the tube into boiling water for about 45 seconds to 2 min. The tube was chilled in ice bath for about 5 min. To this tube was added snake venom (1 mg/ml, 100 ul) or 5′-nucleotidase (0.1 unit/tube) and the mixture was reacted in incubator of 37° C. for 10 min and chilled in ice bath. 3 times volume of methanol to the resin was added to the anion exchange resin (Bio-Rad resin, AG1-X2, 200-400 mesh) which had been already washed with 0.5 N HCl, H2O, 0.5 N NaOH, H2O, 0.5 N HCl and H2O in order and adjusted to pH 5. Then 1 ml of the pretreated resin was added to the each tube with vortexing. The mixture was left at 4° C. for 15 min with occasional vortexing and centrifuged (10,000 rpm) for about 5 min to sediment the resin. The supernatant (700 ul) was transferred to a liquid scintillation vial, and mixed with 10 ml of scintillation cocktail. After stabilizing the mixture by leaving it overnight, the radioactivity of the tube was measured by β-counter.

[4] = Acute oral toxicity test in rats; conditions: SD, rat, in vivo
[5] = Solubility in buffer solution in pH=2&5; format: physicochemical; conditions: for solubility at 30 min: 20 °C, thermodynamic from solid
Experimental: According to that defined in the Korea Pharmacopoeia, citrate-HCl buffer (pH 2) and citrate-NaOH buffer (pH 5) solutions were added to the powdered compounds of formula 1, respectively. After subsequent severe shaking for 30 sec every 5 min in […] for 30 min, the level of compounds in the filtrate was measured by high performance liquid chromatography.

[6] = 1 g/kg, rats, oral single dose, read-out: lethal dose (LD50) of oral administration
[7] = citrate-HCl buffer, pH 2, aqueous buffer, citrate-HCl buffer (pH 2), read-out: solubility pH 2
[8] = citrate-NaOH buffer, pH 5, aqueous buffer, citrate-NaOH buffer (pH 5), read-out: solubility pH 5

Compound	IC50 [1] [nM]	PEI (penile erection index) (rats)	genital grooming (number of genital groomings) (rats)	remnants (%) [2] [%]	IC50 [3] [nM]	LD50 [4, 6] [mg/kg]	solubility at 30 min [5, 7] [µg/mL]	solubility at 30 min [5, 8] [µg/mL]	solubility pH 2 ([5]; citrate-HCl buffer (pH 2)) [ug/ml]	solubility pH 5 ([5]; citrate-NaOH buffer (pH 5)) [ug/ml]	LD50 ([4]; po) [mg/kg]
CCOc1ccc(S(=O)(=O)NCc2ccccn2)cc1-c1nc2c(CC(C)C)nn(C)c2c(=O)[nH]1 [Example 51, 5-[2-ethoxy-5-(2-pyridylmethylamidosulfonyl)phenyl]-1-methyl-3-isobutyl-1,6-dihydro-7H-pyrazolo(4,3-d)pyrimidin-7-one]	1.5	233.3 ± 152.8	3.0 ± 2.0	70.4	> 201000	> 1000	215 (≈ 0.433 mM)	1 (≈ 0.00201 mM)	–	–	–
CCCOc1ccc(S(=O)(=O)NCC2CCCN2C)cc1-c1nc2c(CCC)nn(C)c2c(=O)[nH]1 (stereo not shown) [Example 56, 5-[2-propyloxy-5-(1-methyl-2-pyrrolidinylmethylamidosulfonyl)phenyl]-1-methyl-3-propyl-1,6-dihydro-7H-pyrazolo(4,3-d)pyrimidin-7-one]	14.2	200.0 ± 81.7	2.0 ± 0.0	83.9	> 199000	> 1000	3720 to 5360 (≈ 7.4 to 10.7 mM)	4920 to 14800 (≈ 9.79 to 29.4 mM)	3918	6361	–
CCOc1ccc(S(=O)(=O)NCC2CCCN2C)cc1-c1nc2c(CC(C)C)nn(C)c2c(=O)[nH]1 (stereo not shown) [Example 58, 5-[2-ethoxy-5-(1-methyl-2-pyrrolidinylmethylamidosulfonyl)phenyl]-1-methyl-3-isobutyl-1,6-dihydro-7H-pyrazolo(4,3-d)pyrimidin-7-one]	16	275.0 ± 170.8	3.0 ± 1.8	93.5	> 199000	> 1000	3720 to 5360 (≈ 7.4 to 10.7 mM)	4920 to 14800 (≈ 9.79 to 29.4 mM)	3722	9003	–
CCCOc1ccc(S(=O)(=O)NCC2CCN(C)C2)cc1-c1nc2c(CCC)nn(C)c2c(=O)[nH]1 (stereo not shown) [Example 60, 5-[2-propyloxy-5-(1-methyl-3-pyrrolidinylmethylamidosulfonyl)phenyl]-1-methyl-3-propyl-1,6-dihydro-7H-pyrazolo(4,3-d)pyrimidin-7-one]	34.7	300.0 ± 81.7	2.8 ± 0.5	78.2	> 199000	> 1000	3720 to 5360 (≈ 7.4 to 10.7 mM)	4920 to 14800 (≈ 9.79 to 29.4 mM)	4497	4923	–
CCOc1ccc(S(=O)(=O)NCC2CCN(C)C2)cc1-c1nc2c(CC(C)C)nn(C)c2c(=O)[nH]1 (stereo not shown) [Example 62, 5-[2-ethoxy-5-(1-methyl-3-pyrrolidinylmethylamidosulfonyl)phenyl]-1-methyl-3-isobutyl-1,6-dihydro-7H-pyrazolo(4,3-d)pyrimidin-7-one]	41.7	200.0 ± 100.0	3.0 ± 1.0	94.5	164000	> 1000	3720 to 5360 (≈ 7.4 to 10.7 mM)	4920 to 14800 (≈ 9.79 to 29.4 mM)	4383	3596	–
CCCOc1ccc(S(=O)(=O)NCCC2CCCN2C)cc1-c1nc2c(CCC)nn(C)c2c(=O)[nH]1 (stereo not shown) [Example 68, 5-[2-propyloxy-5-(1-methyl-2-pyrrolidinylethylamidosulfonyl)phenyl]-1-methyl-3-propyl-1,6-dihydro-7H-pyrazolo(4,3-d)pyrimidin-7-one]	8.85	233.3 ± 152.8	3.0 ± 2.0	93.0	70100	–	3720 to 5360 (≈ 7.2 to 10.4 mM)	–	5356	–	> 1000
CCOc1ccc(S(=O)(=O)NCCC2CCCN2C)cc1-c1nc2c(CC(C)C)nn(C)c2c(=O)[nH]1 (stereo not shown) [Example 70, 5-[2-ethoxy-5-(1-methyl-2-pyrrolidinylethylamidosulfonyl)phenyl]-1-methyl-3-isobutyl-1,6-dihydro-7H-pyrazolo(4,3-d)pyrimidin-7-one]	20.3	175.0 ± 50.0	1.8 ± 0.5	94.1	61500	> 1000	795 (≈ 1.54 mM)	708 (≈ 1.37 mM)	–	–	–
